Ki data for nine compounds are collected here from ChEMBL document CHEMBL1143467, “Synthesis of potent and selective serotonin 5-HT1B receptor ligands” (Bioorg Med Chem Lett, 2005).

The target of experiment [1] is D(2) dopamine receptor (Homo sapiens, UniProt P14416). Kind of experiment: Affinity towards cloned Dopamine receptor D2.
The target of experiment [2] is Muscarinic acetylcholine receptor M3 (Homo sapiens, UniProt P20309). Nature of the experiment: Affinity towards cloned Muscarinic acetylcholine receptor M3.
Chain of Muscarinic acetylcholine receptor M3 (P20309 whole entry): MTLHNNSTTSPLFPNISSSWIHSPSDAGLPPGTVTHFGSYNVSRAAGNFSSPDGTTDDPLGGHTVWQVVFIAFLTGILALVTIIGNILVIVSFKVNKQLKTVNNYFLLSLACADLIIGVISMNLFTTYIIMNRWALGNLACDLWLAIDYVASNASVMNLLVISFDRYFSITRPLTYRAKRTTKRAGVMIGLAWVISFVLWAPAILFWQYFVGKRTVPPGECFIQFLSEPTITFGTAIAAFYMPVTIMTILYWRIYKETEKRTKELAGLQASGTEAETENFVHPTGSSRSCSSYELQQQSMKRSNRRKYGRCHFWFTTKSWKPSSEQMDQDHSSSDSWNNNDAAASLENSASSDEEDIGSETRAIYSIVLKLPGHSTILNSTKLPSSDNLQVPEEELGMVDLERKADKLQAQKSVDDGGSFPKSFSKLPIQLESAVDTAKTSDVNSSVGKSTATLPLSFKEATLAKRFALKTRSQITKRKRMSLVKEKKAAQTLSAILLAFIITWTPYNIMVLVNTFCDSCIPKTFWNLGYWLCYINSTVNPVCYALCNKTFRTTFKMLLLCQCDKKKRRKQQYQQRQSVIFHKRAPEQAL
Experiment [3] deals with T1, Muscarinic acetylcholine receptor M4 (Homo sapiens, UniProt P08173).
T1 sequence (P08173 whole entry): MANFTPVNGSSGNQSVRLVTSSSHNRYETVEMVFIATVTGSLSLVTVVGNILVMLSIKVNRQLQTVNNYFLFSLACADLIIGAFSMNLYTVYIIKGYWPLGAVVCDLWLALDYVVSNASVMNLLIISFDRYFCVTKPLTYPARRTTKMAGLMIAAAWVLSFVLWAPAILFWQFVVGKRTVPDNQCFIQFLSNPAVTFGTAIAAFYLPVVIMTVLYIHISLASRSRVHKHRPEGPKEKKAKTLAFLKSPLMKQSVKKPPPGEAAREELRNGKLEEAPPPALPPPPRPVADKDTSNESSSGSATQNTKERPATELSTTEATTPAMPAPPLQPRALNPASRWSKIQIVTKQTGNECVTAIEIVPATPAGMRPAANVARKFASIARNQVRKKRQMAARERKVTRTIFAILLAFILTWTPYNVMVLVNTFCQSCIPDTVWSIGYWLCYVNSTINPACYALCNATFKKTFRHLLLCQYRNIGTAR
Kind of experiment: Affinity towards cloned Muscarinic acetylcholine receptor M4.

Experiment [4] addresses 5-hydroxytryptamine receptor 2A (Homo sapiens, UniProt P28223). Nature of the experiment: In vitro binding affinity towards cloned human 5-HT2A receptor using [3H]5-carboximidotryptamine as radioligand.
The target of experiment [5] is T2, Muscarinic acetylcholine receptor M1 (Homo sapiens, UniProt P11229).
T2 sequence (P11229 whole entry): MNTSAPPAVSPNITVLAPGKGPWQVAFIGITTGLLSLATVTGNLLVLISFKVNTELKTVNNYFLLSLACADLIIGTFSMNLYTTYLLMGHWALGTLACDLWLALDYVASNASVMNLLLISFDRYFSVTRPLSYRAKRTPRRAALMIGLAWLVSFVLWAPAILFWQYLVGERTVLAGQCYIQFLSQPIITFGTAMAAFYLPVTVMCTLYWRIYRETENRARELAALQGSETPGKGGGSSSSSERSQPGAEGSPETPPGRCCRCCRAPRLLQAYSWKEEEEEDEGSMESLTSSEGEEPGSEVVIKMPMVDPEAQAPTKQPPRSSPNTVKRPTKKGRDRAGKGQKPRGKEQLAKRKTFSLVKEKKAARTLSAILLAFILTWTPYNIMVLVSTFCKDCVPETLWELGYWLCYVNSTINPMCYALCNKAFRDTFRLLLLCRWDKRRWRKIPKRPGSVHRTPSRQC
Kind of experiment: Affinity towards cloned Muscarinic acetylcholine receptor M1.

For experiment [6], the target named is T3, 5-hydroxytryptamine receptor 1A (Homo sapiens, UniProt P08908).
T3 sequence (P08908 whole entry): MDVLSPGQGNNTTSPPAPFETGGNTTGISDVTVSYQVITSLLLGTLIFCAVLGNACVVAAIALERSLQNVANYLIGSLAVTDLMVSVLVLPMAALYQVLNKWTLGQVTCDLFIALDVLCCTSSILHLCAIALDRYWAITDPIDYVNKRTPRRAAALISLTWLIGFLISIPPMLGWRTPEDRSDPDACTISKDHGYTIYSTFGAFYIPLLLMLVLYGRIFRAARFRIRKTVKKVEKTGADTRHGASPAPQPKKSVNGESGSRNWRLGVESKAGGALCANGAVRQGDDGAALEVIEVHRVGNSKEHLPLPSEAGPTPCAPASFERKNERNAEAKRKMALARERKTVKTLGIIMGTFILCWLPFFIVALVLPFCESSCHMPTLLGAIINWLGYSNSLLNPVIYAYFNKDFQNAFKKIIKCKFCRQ
Nature of the experiment: In vitro binding affinity towards cloned human 5-HT1A receptor using [3H]5-carboximidotryptamine as radioligand.

Experiment [7] has as its target T3, 5-hydroxytryptamine receptor 1A. Kind of experiment: Affinity towards cloned human 5-hydroxytryptamine 1A receptor.

Chain of 5-hydroxytryptamine receptor 2A (P28223 whole entry): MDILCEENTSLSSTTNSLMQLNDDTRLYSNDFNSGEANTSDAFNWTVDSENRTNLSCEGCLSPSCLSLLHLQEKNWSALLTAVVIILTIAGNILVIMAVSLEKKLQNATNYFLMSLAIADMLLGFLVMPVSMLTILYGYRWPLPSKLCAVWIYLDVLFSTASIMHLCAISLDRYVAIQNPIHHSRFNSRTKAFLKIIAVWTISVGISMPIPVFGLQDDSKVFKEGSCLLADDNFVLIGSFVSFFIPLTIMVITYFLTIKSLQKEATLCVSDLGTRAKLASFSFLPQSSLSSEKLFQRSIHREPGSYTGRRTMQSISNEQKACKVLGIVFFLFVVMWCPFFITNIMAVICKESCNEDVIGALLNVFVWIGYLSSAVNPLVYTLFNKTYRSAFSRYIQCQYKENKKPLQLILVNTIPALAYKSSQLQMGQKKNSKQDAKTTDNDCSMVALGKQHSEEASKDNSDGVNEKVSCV
Chain of D(2) dopamine receptor (P14416 whole entry): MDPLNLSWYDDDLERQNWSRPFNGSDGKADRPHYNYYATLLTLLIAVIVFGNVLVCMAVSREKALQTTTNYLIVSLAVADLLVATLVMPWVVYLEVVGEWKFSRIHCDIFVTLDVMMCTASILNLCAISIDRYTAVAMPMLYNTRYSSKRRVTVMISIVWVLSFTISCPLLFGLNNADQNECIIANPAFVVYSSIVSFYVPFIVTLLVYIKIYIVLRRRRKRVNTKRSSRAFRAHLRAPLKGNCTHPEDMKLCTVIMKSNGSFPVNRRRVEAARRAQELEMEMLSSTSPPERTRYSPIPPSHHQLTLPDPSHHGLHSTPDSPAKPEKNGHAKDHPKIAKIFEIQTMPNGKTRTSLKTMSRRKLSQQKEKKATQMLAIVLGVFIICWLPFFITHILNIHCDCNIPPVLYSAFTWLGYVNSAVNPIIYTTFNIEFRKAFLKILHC

Usually Ki stands for the dissociation constant of the complex between target and ligand, obtained from inhibition or displacement. A lower Ki goes with a stronger hold on the target. Turning to `COc1ccc(NC(=O)N2CCN(c3ccc(F)cc3)CC2)cc1N1CCN(C)CC1`, the Ki was > 10 µM in experiment [1]; > 10 µM in experiment [2]; > 10 µM in experiment [3]; 4.45 µM in experiment [4]; > 10 µM in experiment [5]; 1.08 µM in experiment [6].
For the compound `COc1ccccc1N1CCC(C(=O)Nc2ccc(OC)c(N3CCN(C)CC3)c2)CC1`, the inhibition constant (Ki) was > 10 µM in experiment [1]; > 10 µM in experiment [2]; > 10 µM in experiment [3]; > 10 µM in experiment [4]; > 10 µM in experiment [5]; 0.0154 µM in experiment [6].
Turning to `COc1ccc(NC(=O)N2CCN(c3ccccc3F)CC2)cc1N1CCN(C)CC1`, the inhibition constant Ki in experiment [1] was > 10 µM; in experiment [2] it was > 10 µM; in experiment [3] it was > 10 µM; in experiment [4], > 10 µM; in experiment [5], > 10 µM; in experiment [6] it was 0.315 µM.
With `COc1ccc(NC(=O)N2CCN(c3ccc(C(F)(F)F)cc3)CC2)cc1N1CCN(C)CC1`, the Ki was > 10 µM in experiment [1]; > 10 µM in experiment [2]; > 10 µM in experiment [3]; 0.614 µM in experiment [4]; > 10 µM in experiment [5]; 0.382 µM in experiment [6].
In the case of `COc1ccc(NC(=O)N2CCN(c3ccc(-c4ccccc4)cc3)CC2)cc1N1CCN(C)CC1`, the Ki in experiment [1] was > 10 µM; in experiment [2], > 10 µM; in experiment [3], > 10 µM; in experiment [4], 0.171 µM; in experiment [5] it was > 10 µM; in experiment [6], 0.405 µM.
Consider `COc1ccc(NC(=O)N2CCN(c3ccc(SC)cc3)CC2)cc1N1CCN(C)CC1`, for which the inhibitory constant (Ki) in experiment [1] is > 10 µM; in experiment [2] it was > 10 µM; in experiment [3], > 10 µM; in experiment [4] it was 1.34 µM; in experiment [5], > 10 µM; in experiment [6], 0.882 µM.
Regarding `COc1ccc(NC(=O)N2CCN(c3ccccc3Cl)CC2)cc1N1CCN(C)CC1`, the Ki in experiment [1] was > 10 µM; in experiment [2] it was > 10 µM; in experiment [3], > 10 µM; in experiment [4], 5.99 µM; in experiment [5] it was > 10 µM; in experiment [6], 0.335 µM.
As to `COc1ccc(NC(=O)N2CCN(c3ccc(Cl)cc3)CC2)cc1N1CCN(C)CC1`, the Ki in experiment [1] is > 10 µM; in experiment [2] it was > 10 µM; in experiment [3], > 10 µM; in experiment [4] it was 1.01 µM; in experiment [5], > 10 µM; in experiment [6], 0.0525 µM.
On to `COc1ccc(NC(=O)c2ccc(-c3ccc(-c4noc(C)n4)cc3C)cc2)cc1N1CCN(C)CC1` [GR-127935], for which the inhibitory constant (Ki) was > 10 µM in experiment [1]; 0.07 µM in experiment [7]; > 10 µM in experiment [2]; > 10 µM in experiment [3]; 0.0427 µM in experiment [4]; > 10 µM in experiment [5]. Further, affinity in experiment [6] was put at a Ki of 0.08 µM.
